PubChem BioAssay AID256 (DTP/NCI, 2004)
“And” between values parts separate entries of the source, which are not always exact repeats. Identical values can stand only once. Toxic doses and inconclusive results are not listed. The calls were made as follows: active = survival T/C of 150% or more; inactive = T/C below 125% in these data.

System: CD2F1 mice, L1210 leukemia ip, survival T/C
Assay: NCI In Vivo Anticancer Drug Screen. Data for tumor model L1210 Leukemia (intraperitoneal) in CD2F1 (CDF1) mice
Conditions: higher = longer survival
Outline: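 Compound-dosed mice with transplantable tumor versus matched vehicle controls; endpoint ratio T/C reported.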

[1] = endpoint: mean survival time, dose: 100.0 mg/kg/injection, schedule: Q04DX003 (ip), vehicle: saline
[2] = endpoint: mean survival time, dose: 200.0 mg/kg/injection, schedule: Q04DX003 (ip), vehicle: saline
[3] = endpoint: mean survival time, dose: 400.0 mg/kg/injection, schedule: Q04DX003 (ip), vehicle: saline
[4] = endpoint: mean survival time, dose: 100.0 mg/kg/injection, schedule: Q01DX001 (ip), vehicle: saline with Tween-80
[5] = endpoint: mean survival time, dose: 200.0 mg/kg/injection, schedule: Q01DX001 (ip), vehicle: saline with Tween-80
[6] = endpoint: mean survival time, dose: 400.0 mg/kg/injection, schedule: Q01DX001 (ip), vehicle: saline with Tween-80
[7] = endpoint: mean survival time, dose: 12.5 mg/kg/injection, schedule: Q01DX009 (ip), vehicle: Klucel (hydroxypropylcellulose) (HPC)
[8] = endpoint: mean survival time, dose: 200.0 mg/kg/injection, schedule: Q04DX002 (ip), vehicle: saline with Tween-80

Measured: T/C

CCc1nc(N)nc(N)c1-c1ccc(Cl)cc1
inactive: endpoint: mean survival time, dose: 2.0 mg/kg/injection, schedule: Q03HX008 (ip), vehicle: saline 92 % of control | endpoint: mean survival time, dose: 2.0 mg/kg/injection, schedule: Q03HX016 (ip), vehicle: saline 89 % of control | endpoint: mean survival time, dose: 2.0 mg/kg/injection, schedule: Q03HX024 (ip), vehicle: saline 88 % of control | endpoint: mean survival time, dose: 4.0 mg/kg/injection, schedule: Q03HX008 (ip), vehicle: saline 90 % of control | endpoint: mean survival time, dose: 4.0 mg/kg/injection, schedule: Q03HX016 (ip), vehicle: saline 91 % of control | endpoint: mean survival time, dose: 4.0 mg/kg/injection, schedule: Q03HX024 (ip), vehicle: saline 86 % of control | endpoint: mean survival time, dose: 8.0 mg/kg/injection, schedule: Q01DX009 (oral), vehicle: saline 92 % of control | endpoint: mean survival time, dose: 8.0 mg/kg/injection, schedule: Q03HX008 (ip), vehicle: saline 92 % of control | endpoint: mean survival time, dose: 8.0 mg/kg/injection, schedule: Q03HX016 (ip), vehicle: saline 87 % of control | endpoint: mean survival time, dose: 8.0 mg/kg/injection, schedule: Q03HX024 (ip), vehicle: saline 88 % of control and 93 % of control | endpoint: mean survival time, dose: 16.0 mg/kg/injection, schedule: Q01DX001 (ip), vehicle: saline 107 % of control | endpoint: mean survival time, dose: 16.0 mg/kg/injection, schedule: Q01DX001 (oral), vehicle: saline 101 % of control | endpoint: mean survival time, dose: 16.0 mg/kg/injection, schedule: Q01DX009 (ip), vehicle: saline 101 % of control | endpoint: mean survival time, dose: 16.0 mg/kg/injection, schedule: Q01DX009 (oral), vehicle: saline 95 % of control | endpoint: mean survival time, dose: 16.0 mg/kg/injection, schedule: Q03HX008 (ip), vehicle: saline 89 % of control and 91 % of control | endpoint: mean survival time, dose: 16.0 mg/kg/injection, schedule: Q03HX016 (ip), vehicle: saline 91 % of control and 100 % of control | endpoint: mean survival time, dose: 16.0 mg/kg/injection, schedule: Q03HX024 (ip), vehicle: saline 90 % of control and 96 % of control | endpoint: mean survival time, dose: 16.0 mg/kg/injection, schedule: Q04DX003 (ip), vehicle: saline 88 % of control | endpoint: mean survival time, dose: 16.0 mg/kg/injection, schedule: Q08DX002 (ip), vehicle: saline 97 % of control | endpoint: mean survival time, dose: 32.0 mg/kg/injection, schedule: Q01DX001 (ip), vehicle: saline 98 % of control | endpoint: mean survival time, dose: 32.0 mg/kg/injection, schedule: Q01DX001 (oral), vehicle: saline 96 % of control | endpoint: mean survival time, dose: 32.0 mg/kg/injection, schedule: Q01DX009 (ip), vehicle: saline 106 % of control | endpoint: mean survival time, dose: 32.0 mg/kg/injection, schedule: Q01DX009 (oral), vehicle: saline 112 % of control | endpoint: mean survival time, dose: 32.0 mg/kg/injection, schedule: Q04DX003 (ip), vehicle: saline 87 % of control | endpoint: mean survival time, dose: 32.0 mg/kg/injection, schedule: Q08DX002 (ip), vehicle: saline 94 % of control | endpoint: mean survival time, dose: 64.0 mg/kg/injection, schedule: Q01DX001 (ip), vehicle: saline 100 % of control | endpoint: mean survival time, dose: 64.0 mg/kg/injection, schedule: Q01DX001 (oral), vehicle: saline 98 % of control | endpoint: mean survival time, dose: 64.0 mg/kg/injection, schedule: Q01DX009 (ip), vehicle: saline 108 % of control | endpoint: mean survival time, dose: 64.0 mg/kg/injection, schedule: Q01DX009 (oral), vehicle: saline 120 % of control and 96 % of control | endpoint: mean survival time, dose: 64.0 mg/kg/injection, schedule: Q04DX003 (ip), vehicle: saline 86 % of control and 95 % of control | endpoint: mean survival time, dose: 64.0 mg/kg/injection, schedule: Q08DX002 (ip), vehicle: saline 95 % of control | endpoint: mean survival time, dose: 128.0 mg/kg/injection, schedule: Q01DX001 (ip), vehicle: saline 100 % of control | endpoint: mean survival time, dose: 128.0 mg/kg/injection, schedule: Q01DX001 (oral), vehicle: saline 91 % of control | endpoint: mean survival time, dose: 128.0 mg/kg/injection, schedule: Q04DX003 (ip), vehicle: saline 96 % of control | endpoint: mean survival time, dose: 128.0 mg/kg/injection, schedule: Q08DX002 (ip), vehicle: saline 93 % of control and 101 % of control

O=C(On1nnc2ccccc2c1=O)c1ccccc1
inactive: endpoint: mean survival time, dose: 12.5 mg/kg/injection, schedule: Q01DX001 (ip), vehicle: distilled water + Tween-80 102 % of control | endpoint: mean survival time, dose: 25.0 mg/kg/injection, schedule: Q01DX001 (ip), vehicle: distilled water + Tween-80 101 % of control | endpoint: mean survival time, dose: 50.0 mg/kg/injection, schedule: Q01DX001 (ip), vehicle: distilled water + Tween-80 98 % of control | endpoint: mean survival time, dose: 100.0 mg/kg/injection, schedule: Q01DX001 (ip), vehicle: distilled water + Tween-80 100 % of control | endpoint: mean survival time, dose: 200.0 mg/kg/injection, schedule: Q01DX001 (ip), vehicle: distilled water + Tween-80 97 % of control

CC1=CCCC2C1(C)CCC(C)C2(C)Cc1cc(O)ccc1O (centres undefined)
inactive: endpoint: median survival time, dose: 6.25 mg/kg/injection, schedule: Q01DX005 (ip), vehicle: Klucel (hydroxypropylcellulose) (HPC) 107 % of control | endpoint: median survival time, dose: 12.5 mg/kg/injection, schedule: Q01DX005 (ip), vehicle: Klucel (hydroxypropylcellulose) (HPC) 103 % of control | endpoint: median survival time, dose: 25.0 mg/kg/injection, schedule: Q01DX005 (ip), vehicle: Klucel (hydroxypropylcellulose) (HPC) 98 % of control | endpoint: median survival time, dose: 50.0 mg/kg/injection, schedule: Q01DX005 (ip), vehicle: Klucel (hydroxypropylcellulose) (HPC) 102 % of control | endpoint: median survival time, dose: 100.0 mg/kg/injection, schedule: Q01DX005 (ip), vehicle: Klucel (hydroxypropylcellulose) (HPC) 97 % of control

O=C(O)COc1cccc(OCC(=O)O)c1
inactive: endpoint: mean survival time, dose: 100.0 mg/kg/injection, schedule: Q04DX003 (ip), vehicle: saline with Tween-80 100 % of control | [1] 96 % of control | endpoint: mean survival time, dose: 200.0 mg/kg/injection, schedule: Q04DX003 (ip), vehicle: saline with Tween-80 91 % of control | [2] 94 % of control | [3] 100 % of control

CCCCCCCCCCCCCCOc1ccc(OCCCCCCCCC)cc1
inactive: [4] 94 % of control | [5] 94 % of control | [6] 95 % of control

CCC(C)(O)C(C)=O (centres undefined)
inactive: [7] 98 % of control | endpoint: mean survival time, dose: 25.0 mg/kg/injection, schedule: Q01DX009 (ip), vehicle: Klucel (hydroxypropylcellulose) (HPC) 92 % of control | endpoint: mean survival time, dose: 50.0 mg/kg/injection, schedule: Q01DX009 (ip), vehicle: Klucel (hydroxypropylcellulose) (HPC) 98 % of control | endpoint: mean survival time, dose: 100.0 mg/kg/injection, schedule: Q01DX009 (ip), vehicle: Klucel (hydroxypropylcellulose) (HPC) 98 % of control | endpoint: mean survival time, dose: 200.0 mg/kg/injection, schedule: Q01DX009 (ip), vehicle: Klucel (hydroxypropylcellulose) (HPC) 105 % of control

O=S1(=O)c2ccccc2C(=NO)c2ccccc21
inactive: [1] 92 % of control | [2] 96 % of control | [3] 106 % of control

C[n+]1c(/C=C/c2ccc([N+](=O)[O-])cc2)ccc2ccccc21
inactive: endpoint: mean survival time, dose: 6.25 mg/kg/injection, schedule: Q01DX009 (ip), vehicle: saline with Tween-80 98 % of control | endpoint: mean survival time, dose: 12.5 mg/kg/injection, schedule: Q01DX009 (ip), vehicle: saline with Tween-80 102 % of control | endpoint: mean survival time, dose: 25.0 mg/kg/injection, schedule: Q04DX003 (ip), vehicle: saline with Tween-80 96 % of control

CC(=N\[O-])/C(C)=N/O.CC(=N\[O-])/C(C)=N/O.CC(=O)[O-].CC(=O)[O-].O.[Rh+2].[Rh+2]
inactive: endpoint: mean survival time, dose: 0.78 mg/kg/injection, schedule: Q01DX009 (ip), vehicle: saline 88 % of control | endpoint: mean survival time, dose: 3.13 mg/kg/injection, schedule: Q01DX009 (ip), vehicle: saline 96 % of control | endpoint: mean survival time, dose: 6.25 mg/kg/injection, schedule: Q01DX009 (ip), vehicle: saline 91 % of control | [7] 95 % of control | endpoint: mean survival time, dose: 12.5 mg/kg/injection, schedule: Q01DX009 (ip), vehicle: saline 93 % of control

CC1(C)OCC(C(O)C(OC(=O)c2ccccc2)C2COC(C)(C)O2)O1 (centres undefined)
inactive: [4] 106 % of control | [5] 94 % of control | [6] 105 % of control

CCCCNc1c(C(=O)N2CCCCC2)cnc2c1cnn2CC
inactive: [1] 97 % of control | [2] 101 % of control

COc1c(NC(=O)Nc2cccc(Cl)c2)cccc1[N+](=O)[O-]
inactive: endpoint: mean survival time, dose: 100.0 mg/kg/injection, schedule: Q04DX002 (ip), vehicle: saline with Tween-80 92 % of control | [8] 88 % of control

C[C@]12C[C@H](O)[C@H]3[C@@H](CCC4=CC(=O)CC[C@@]43C)[C@@H]1CC[C@@H]2C(=O)CO
inactive: endpoint: median survival time, dose: 25.0 mg/kg/injection, schedule: Q01DX009 (sc), vehicle: steriod suspending solution 100 % of control | endpoint: median survival time, dose: 50.0 mg/kg/injection, schedule: Q01DX009 (sc), vehicle: steriod suspending solution 100 % of control | endpoint: median survival time, dose: 100.0 mg/kg/injection, schedule: Q01DX009 (sc), vehicle: steriod suspending solution 100 % of control | endpoint: median survival time, dose: 200.0 mg/kg/injection, schedule: Q01DX009 (sc), vehicle: steriod suspending solution 100 % of control

O=C(CCl)NC12Nc3ccccc3C1(Cc1ccccc1)CN(C1CCCCC1)C2=O (centres undefined)
inactive: endpoint: mean survival time, dose: 50.0 mg/kg/injection, schedule: Q04DX002 (ip), vehicle: saline with Tween-80 95 % of control | [4] 100 % of control | [5] 86 % of control | [8] 89 % of control
